# According to ChEMBL document CHEMBL1201862, “PubChem BioAssay data set” (2004):
# Several values for one entry are separate records, joined by “and”; a condition that tells them apart may be missing. Equal values may be shown once.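 Protocol summary: plate cells (96-well), add compound at 5 concentrations, incubate 48 h, interpolate endpoints linearly. GI50 marks 50% less growth.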 Activity calls are given as the source filed them. Rule as the data show it: active = GI50 up to about 1.1 µM and inactive = higher.
# How the values were obtained:
# Assay in all cases: inhibition of tumour cell growth, NCI panel, 48 h
# [1] = tested on: DU-145
# [2] = tested on: MCF7
# [3] = tested on: OVCAR-5
# [4] = tested on: A498
# [5] = tested on: HCT-15
# [6] = tested on: CAKI-1
# [7] = tested on: PC-3
# [8] = tested on: HT-29
# [9] = tested on: OVCAR-8
# [10] = tested on: HCC 2998
# [11] = tested on: SR
# [12] = tested on: RPMI-8226
# [13] = tested on: UO-31
# [14] = tested on: SNB-75
# [15] = tested on: BT-549
# [16] = tested on: NCI/ADR-RES
# [17] = tested on: SK-MEL-2
# [18] = tested on: K562
# [19] = tested on: OVCAR-3
# [20] = tested on: NCI-H23
# [21] = tested on: IGROV-1
# [22] = tested on: MDA-MB-231
# [23] = tested on: SNB-19
# [24] = tested on: T47D
# [25] = tested on: RXF 393
# [26] = tested on: KM12
# [27] = tested on: NCI-H226
# [28] = tested on: U-251
# [29] = tested on: SK-OV-3
# [30] = tested on: COLO 205
# [31] = tested on: MDA-N
# [32] = tested on: HCT-116
# [33] = tested on: NCI-H522
# [34] = tested on: SN12C
# [35] = tested on: HOP-62
# [36] = tested on: ACHN
# [37] = tested on: MOLT-4
# [38] = tested on: SF-539
# [39] = tested on: EKVX
# [40] = tested on: SW-620
# [41] = tested on: OVCAR-4
# [42] = tested on: SK-MEL-28
# [43] = tested on: UACC-257
# [44] = tested on: LOX IMVI
# [45] = tested on: Malme-3M
# [46] = tested on: NCI-H460
# [47] = tested on: UACC-62
# [48] = tested on: SK-MEL-5
# [49] = tested on: M14
# [50] = tested on: A549
# [51] = tested on: HOP-92
# [52] = tested on: SF-295
# [53] = tested on: MDA-MB-435
# [54] = tested on: HL-60
# [55] = tested on: CCRF-CEM
# [56] = tested on: 786-0
structure (smiles),measurement,setting,value
COC(=O)C(Cc1ccccc1)NC(=O)C(CNC(=O)OCc1ccccc1)C(=O)OCc1ccccc1 (stereo not drawn),GI50,[1],> 100 µM (inactive)
same,GI50,[2],30.2 µM (inactive) and 48.2 µM (inactive)
same,GI50,[3],> 100 µM (inactive)
same,GI50,[4],> 100 µM (inactive)
same,GI50,[5],> 100 µM
same,GI50,[6],48.6 µM (inactive) and 64 µM (inactive)
same,GI50,[7],58.3 µM (inactive)
same,GI50,[8],> 100 µM (inactive)
same,GI50,[9],> 100 µM (inactive)
same,GI50,[10],> 100 µM (inactive)
same,GI50,[11],> 100 µM (inactive) and 56.1 µM (inactive)
same,GI50,[12],> 100 µM (inactive)
same,GI50,[13],> 100 µM (inactive) and 95.5 µM (inactive)
same,GI50,[14],42.6 µM (inactive) and 21.8 µM (inactive)
same,GI50,[15],> 100 µM (inactive)
same,GI50,[16],> 100 µM (inactive)
same,GI50,[17],> 100 µM (inactive) and 86.5 µM (inactive)
same,GI50,[18],> 100 µM (inactive)
same,GI50,[19],36.6 µM (inactive) and 32.3 µM (inactive)
same,GI50,[20],> 100 µM (inactive)
same,GI50,[21],98.4 µM (inactive) and 60.3 µM (inactive)
same,GI50,[22],38.7 µM (inactive) and 23 µM (inactive)
same,GI50,[23],> 100 µM (inactive)
same,GI50,[24],79.6 µM (inactive) and 47.8 µM (inactive)
same,GI50,[25],13.2 µM (inactive)
same,GI50,[26],> 100 µM (inactive)
same,GI50,[27],54.8 µM (inactive) and 57.5 µM (inactive)
same,GI50,[28],31.3 µM (inactive) and 46.7 µM (inactive)
same,GI50,[29],59.7 µM (inactive)
same,GI50,[30],51.1 µM (inactive)
same,GI50,[31],> 100 µM (inactive)
same,GI50,[32],70.3 µM (inactive) and 71 µM (inactive)
same,GI50,[33],29.4 µM (inactive) and 32.2 µM (inactive)
same,GI50,[34],> 100 µM (inactive)
O=c1s[s+]([O-])c2ccccc12 (stereo not drawn),GI50,[1],> 100 µM (inactive)
same,GI50,[2],> 100 µM (inactive)
same,GI50,[35],> 100 µM (inactive)
same,GI50,[3],> 100 µM (inactive)
same,GI50,[4],> 100 µM (inactive)
same,GI50,[5],72.9 µM
same,GI50,[6],> 100 µM (inactive)
same,GI50,[7],> 100 µM (inactive)
same,GI50,[36],> 100 µM (inactive)
same,GI50,[37],> 100 µM (inactive)
same,GI50,[8],> 100 µM (inactive)
same,GI50,[9],> 100 µM (inactive)
same,GI50,[38],> 100 µM (inactive)
same,GI50,[10],> 100 µM (inactive)
same,GI50,[11],> 100 µM (inactive)
same,GI50,[12],62.1 µM (inactive)
same,GI50,[13],> 100 µM (inactive)
same,GI50,[39],> 100 µM (inactive)
same,GI50,[14],> 100 µM (inactive)
same,GI50,[40],> 100 µM (inactive)
same,GI50,[41],> 100 µM (inactive)
same,GI50,[15],> 100 µM (inactive)
same,GI50,[16],> 100 µM (inactive)
same,GI50,[17],> 100 µM (inactive)
same,GI50,[18],45.7 µM (inactive)
same,GI50,[42],> 100 µM (inactive)
same,GI50,[19],> 100 µM (inactive)
same,GI50,[20],> 100 µM (inactive)
same,GI50,[21],> 100 µM (inactive)
same,GI50,[43],> 100 µM (inactive)
same,GI50,[22],> 100 µM (inactive)
same,GI50,[23],> 100 µM (inactive)
same,GI50,[44],58.3 µM (inactive)
same,GI50,[45],> 100 µM (inactive)
same,GI50,[46],46.8 µM (inactive)
same,GI50,[47],> 100 µM (inactive)
same,GI50,[48],> 100 µM (inactive)
same,GI50,[49],> 100 µM (inactive)
same,GI50,[50],> 100 µM (inactive)
same,GI50,[51],> 100 µM (inactive)
same,GI50,[26],> 100 µM (inactive)
same,GI50,[27],> 100 µM (inactive)
same,GI50,[52],> 100 µM (inactive)
same,GI50,[28],> 100 µM (inactive)
same,GI50,[29],> 100 µM (inactive)
same,GI50,[53],> 100 µM (inactive)
same,GI50,[30],> 100 µM (inactive)
same,GI50,[54],46.9 µM (inactive)
same,GI50,[55],61.4 µM (inactive)
same,GI50,[31],> 100 µM (inactive)
same,GI50,[56],> 100 µM (inactive)
same,GI50,[32],> 100 µM (inactive)
same,GI50,[33],39.4 µM (inactive)
same,GI50,[34],> 100 µM (inactive)
